Measurements reported in patent US10538512B2, “Aminoacylindazole immunomodulators for treatment of autoimmune diseases” (The Rockefeller University, priority 2016, dated 2020).

Key:
Human FXIIa = target: T1, Human FXIIa (Homo sapiens, UniProt P00748); assay: Factor XIIa (FXIIa) inhibitory activity, chromogenic substrate assay; type: biochemical; conditions: Human FXIIa 12.5 nM, Pefachrome XIIa 400 μM, 10 min preincubation
T1 construct: active coagulation factor XII (FXIIa); purchased Enzyme Research Labs
T1 sequence (P00748 373-615 limits assumed): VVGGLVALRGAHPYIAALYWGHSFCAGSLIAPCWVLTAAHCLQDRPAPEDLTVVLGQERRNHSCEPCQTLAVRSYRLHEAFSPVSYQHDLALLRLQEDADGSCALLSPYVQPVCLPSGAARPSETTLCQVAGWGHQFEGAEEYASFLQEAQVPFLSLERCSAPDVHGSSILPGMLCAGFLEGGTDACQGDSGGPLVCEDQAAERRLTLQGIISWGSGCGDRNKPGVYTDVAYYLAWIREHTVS
T1 sequence (P00748 20-372 partner limits assumed): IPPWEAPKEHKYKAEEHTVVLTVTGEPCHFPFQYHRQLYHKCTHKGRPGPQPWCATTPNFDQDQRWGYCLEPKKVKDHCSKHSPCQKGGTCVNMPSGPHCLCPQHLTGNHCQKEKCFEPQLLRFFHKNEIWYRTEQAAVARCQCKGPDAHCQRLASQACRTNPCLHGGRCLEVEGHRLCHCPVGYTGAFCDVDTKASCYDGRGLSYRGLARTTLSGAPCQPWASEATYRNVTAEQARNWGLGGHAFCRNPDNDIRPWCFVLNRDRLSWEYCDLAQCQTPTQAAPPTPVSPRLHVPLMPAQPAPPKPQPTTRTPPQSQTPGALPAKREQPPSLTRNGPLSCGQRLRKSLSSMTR
In short: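 Buffer was 0.5× HBSS with 25 mM HEPES pH 7.4 and 0.5× TBS-Tween 0.05%. Enzyme and compound (about 1–100 μM) were preincubated 10 min at room temperature, then Pefachrome XIIa was added at 400 μM final. Substrate cleavage was followed as the rate of A405 change at 37 °C.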

Human alpha-thrombin = target: T2, Human alpha-thrombin (Homo sapiens, UniProt P00734); assay: Thrombin counterscreen for selectivity, fluorogenic substrate assay; type: biochemical; conditions: Human alpha-thrombin 12.5 nM, Boc-Val-Pro-Arg-AMC 20 μM, 10 min preincubation
T2 construct: Human alpha-thrombin (Enzyme Research Labs); purchased Enzyme Research Labs
Description: Counterscreens for Selectivity:
In a 96-well white opaque plate, 80 μl of assay buffer was added to each well. Test compounds were added, and serially diluted as above, to generate a concentration range of approximately 1-100 μM. […] 80 μl of this enzyme solution was added to the assay wells. The enzyme/compound mixtures were incubated for 10 minutes at room temperature. Fluorogenic substrate (Boc-Val-Pro-Arg-7-amido-4-methylcoumarin; Sigma) was added to assay wells at a final concentration of 20 μM. The assay plate was spun for 1 minute at 1500 g and then read at 37° C. in a SpectraMax M2 plate reader (λex=380 nm and λem=460 nm). Activity was quantified as the rate of change in fluorescence, which corresponds to the rate of substrate cleavage.

| IC50 (Human FXIIa) [µM] | IC50 (Human alpha-thrombin) [µM] | Compound |
| --- | --- | --- |
| 1.2 | > 75 | Nc1c2c(nn1C(=O)[C@@H]1CCNc3ccc(F)cc31)CC[C@H](O)C2 (relative stereo) [Example 134, ((5S*)-3-amino-5-hydroxy-4,5,6,7-tetrahydro-1H-indazol-2-yl)((4R*)-6-fluoro-1,2,3,4-tetrahydroquinolin-4-yl)methanone] |
| 0.1 | 25 | Nc1c2c(nn1C(=O)c1cccc3[nH]ccc13)CCCC2 (single isomer, unassigned) [Example 1, (3-Amino-4,5,6,7-tetrahydro-2H-indazol-2-yl)(1H-indol-4-yl)methanone] |
| > 50 | > 50 | Nc1nn(C(=O)c2cccc3[nH]ccc23)c2c1CCCC2 (single isomer, unassigned) [Example 2, (3-amino-4,5,6,7-tetrahydroindazol-1-yl)(1H-indol-4-yl)methanone] |
| 5 | 33 | Cc1c2c(nn1C(=O)c1cccc3[nH]ccc13)CCCC2 (single isomer, unassigned) [Example 3, (1H-Indol-4-yl)(3-methyl-4,5,6,7-tetrahydroindazol-2-yl)methanone] |
| 65 | 45 | Cc1nn(C(=O)c2cccc3[nH]ccc23)c2c1CCCC2 (single isomer, unassigned) [Example 4, (1H-indol-4-yl)(3-methyl-4,5,6,7-tetrahydroindazol-1-yl)methanone] |
| 1.7 | > 50 | Nc1c2c(nn1C(=O)C1CCCc3ccccc31)CCCC2 (single isomer, unassigned) [Example 5, (S*)-(3-Amino-4,5,6,7-tetrahydroindazol-2-yl)(1,2,3,4-tetrahydronaphthalen-1-yl)methanone] |
| ≥ 50 | > 50 | Nc1c2c(nn1C(=O)C1CCCc3ccccc31)CCCC2 (single isomer, unassigned) [Example 6, (R*)-(3-amino-4,5,6,7-tetrahydroindazol-2-yl)(1,2,3,4-tetrahydronaphthalen-1-yl)methanone] |
| 0.15 | 30 | Cn1ccc2c(C(=O)n3nc4c(c3N)CCCC4)cccc21 (single isomer, unassigned) [Example 7, (3-Amino-4,5,6,7-tetrahydroindazol-2-yl)(1-methyl-1H-indol-4-yl)methanone] |
| > 50 | > 50 | Cn1ccc2c(C(=O)n3nc(N)c4c3CCCC4)cccc21 (single isomer, unassigned) [Example 8, (3-amino-4,5,6,7-tetrahydroindazol-1-yl)(1-methyl-1H-indol-4-yl)methanone] |
| 0.02 | 40 | Cc1cc2c(C(=O)n3nc4c(c3N)CCCC4)cccc2[nH]1 (single isomer, unassigned) [Example 9, (3-Amino-4,5,6,7-tetrahydroindazol-2-yl)(2-methyl-1H-indol-4-yl)methanone] |
| 0.2 | > 50 | CCc1cscc1C(=O)n1nc2c(c1N)CCCC2 (single isomer, unassigned) [Example 11, (3-Amino-4,5,6,7-tetrahydroindazol-2-yl)(4-ethylthiophen-3-yl)methanone] |
| > 50 | > 50 | CCc1cscc1C(=O)n1nc(N)c2c1CCCC2 (single isomer, unassigned) [Example 12, (3-amino-4,5,6,7-tetrahydroindazol-1-yl)(4-ethylthiophen-3-yl)methanone] |
| 5.6 | 77 | Nc1c2c(nn1C(=O)C1OCCc3ccccc31)CCCC2 (single isomer, unassigned) [Example 13, (3-Amino-4,5,6,7-tetrahydroindazol-2-yl)(isochroman-1-yl)methanone] |
| > 100 | > 100 | Nc1nn(C(=O)C2OCCc3ccccc32)c2c1CCCC2 (single isomer, unassigned) [Example 15, (3-amino-4,5,6,7-tetrahydroindazol-1-yl)(isochroman-1-yl)methanone] |
| > 100 | > 100 | Cc1csc(C)c1C(=O)n1nc(N)c2c1CCCC2 (single isomer, unassigned) [Example 17, (3-amino-4,5,6,7-tetrahydroindazol-1-yl)(2,4-dimethylthiophen-3-yl)methanone] |
| 5 | > 100 | CCc1csc(C)c1C(=O)n1nc2c(c1N)CCCC2 (single isomer, unassigned) [Example 18, (3-Amino-4,5,6,7-tetrahydroindazol-2-yl)(4-ethyl-2-methylthiophen-3-yl)methanone] |
| > 100 | > 100 | CCc1csc(C)c1C(=O)n1nc(N)c2c1CCCC2 (single isomer, unassigned) [Example 19, (3-amino-4,5,6,7-tetrahydroindazol-1-yl)(4-ethyl-2-methylthiophen-3-yl)methanone] |
| 17.5 | > 100 | Nc1c2c(nn1C(=O)c1cccc3c1ccn3-c1ccccc1)CCCC2 (single isomer, unassigned) [Example 20, (3-amino-4,5,6,7-tetrahydroindazol-2-yl)(1-phenyl-1H-indol-4-yl)methanone] |
| – | > 100 | Nc1nn(C(=O)c2cccc3c2ccn3-c2ccccc2)c2c1CCCC2 (single isomer, unassigned) [Example 21, (3-amino-4,5,6,7-tetrahydroindazol-1-yl)(1-phenyl-1H-indol-4-yl)methanone] |
| 5 | > 100 | Cc1sc2ccccc2c1C(=O)n1nc2c(c1N)CCCC2 (single isomer, unassigned) [Example 23, (3-Amino-4,5,6,7-tetrahydroindazol-2-yl)(2-methylbenzo[b]thiophen-3-yl)methanone] |
| > 100 | > 100 | Cc1sc2ccccc2c1C(=O)n1nc(N)c2c1CCCC2 (single isomer, unassigned) [Example 24, (3-amino-4,5,6,7-tetrahydroindazol-1-yl)(2-methylbenzo[b]thiophen-3-yl)methanone] |
| – | > 80 | CN1CCC(C(=O)n2nc(N)c3c2CCCC3)c2ccccc21 (single isomer, unassigned) [Example 26, (3-amino-4,5,6,7-tetrahydroindazol-1-yl)(1-methyl-1,2,3,4-tetrahydroquinolin-4-yl)methanone] |
| 0.4 | > 50 | CC(C)c1cc2c(C(=O)n3nc4c(c3N)CCCC4)cccc2[nH]1 (single isomer, unassigned) [Example 51, (3-amino-4,5,6,7-tetrahydroindazol-2-yl)(2-isopropyl-1H-indol-4-yl)methanone] |
| 0.02 | 28 | Nc1c2c(nn1C(=O)c1cccc3[nH]c(C4CC4)cc13)CCCC2 (single isomer, unassigned) [Example 53, (3-amino-4,5,6,7-tetrahydroindazol-2-yl)(2-cyclopropyl-1H-indol-4-yl)methanone] |
| 30 | > 85 | Nc1nn(C(=O)c2cccc3[nH]c(C4CC4)cc23)c2c1CCCC2 (single isomer, unassigned) [Example 54, (3-amino-4,5,6,7-tetrahydroindazol-1-yl)(2-cyclopropyl-1H-indol-4-yl)methanone] |
| 0.01 | 20 | Nc1c2c(nn1C(=O)c1cccc3[nH]c(Cl)cc13)CCCC2 (single isomer, unassigned) [Example 55, (3-amino-4,5,6,7-tetrahydroindazol-2-yl)(2-chloro-1H-indol-4-yl)methanone] |
| 29 | > 100 | Nc1nn(C(=O)c2cccc3[nH]c(Cl)cc23)c2c1CCCC2 (single isomer, unassigned) [Example 56, (3-amino-4,5,6,7-tetrahydroindazol-1-yl)(2-chloro-1H-indol-4-yl)methanone] |
| – | 55 | C=Cc1cc2c(C(=O)n3nc(N)c4c3CCCC4)cccc2[nH]1 (single isomer, unassigned) [Example 71, (3-amino-4,5,6,7-tetrahydroindazol-1-yl)(2-vinyl-1H-indol-4-yl)methanone] |
| – | > 100 | Nc1c2c(nn1C(=O)[C@@H]1CCNc3ccccc31)CC[C@@H](O)C2 (single isomer, unassigned) [Example 166, ((5R*)-3-amino-5-hydroxy-4,5,6,7-tetrahydroindazol-2-yl)((4R*)-1,2,3,4-tetrahydroquinolin-4-yl)methanone] |
| – | > 100 | Nc1nn(C(=O)c2c[nH]c3ccccc23)c2c1CCCC2 [Example 155] |
